The values below come from patent US7884242B2, “N-heterocyclylphthaldiamides as insecticides” (Bayer CropScience AG, priority 2004, dated 2011).

The nature of series [1]: log P determination by HPLC on reverse phase column, pH 2.3. The settings on record: reverse phase HPLC column (C 18), reverse phase column (C 18), pH 2.3, 43° C. Format: physicochemical. In outline:
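Reverse-phase C18 HPLC at 43 °C per EEC directive 79/831 Annex V.A8, eluting with 0.1% aqueous phosphoric acid (pH 2.3) and a linear 10–95% acetonitrile gradient. log P read from retention time by linear interpolation between two sequential unbranched alkan-2-ones (C3–C16) of known log P.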

The test system of series [2] is green peach aphid (Myzus persicae). Kind of series: Myzus test (spray treatment). Format: in vivo. The method, boiled down:
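Chinese cabbage slices infested with all aphid stages were sprayed with compound formulated in solvent and emulsifier and diluted in emulsifier-containing water. After a set time, percent mortality was scored: 100% means all aphids killed, 0% none killed.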

For series [3], the system named is larvae of the mustard leaf beetle (Phaedon cochleariae). The series can be described thus: Phaedon test (spray treatment). Format: in vivo. The procedure:
[table] For the preparation of a suitable active compound formulation 1 part by weight of the active compound is mixed with the above amounts of solvent and emulsifier and the concentrate is diluted to the desired concentration with water containing emulsifier. China cabbage slices (Brassica pekinensis) are sprayed with an active compound preparation of the desired composition and after drying infected with larvae of the mustard leaf beetle (Phaedon cochleariae). After the desired time the activity in % is determined. Here 100% means that all beetle larvae were killed; 0% means that no beetle larvae were killed.

Series [4] has as its system caterpillars of the fall army worm (Spodoptera frugiperda). The series can be described thus: Spodoptera frugiperda test (spray treatment). It counts as in vivo. The method, boiled down: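 Maize leaf sections sprayed with emulsified aqueous compound preparation at the desired concentration, dried, then infested with fall armyworm caterpillars. Activity scored after the set time as % kill (100% all caterpillars dead, 0% none).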

The test system of series [5] is caterpillars of the diamond back moth (Plutella xylostella). Kind of series: Plutella test. Format: in vivo. The procedure:
[table] For the preparation of a suitable active compound formulation 1 part by weight of the active compound is mixed with the above amounts of solvent and emulsifier and the concentrate is diluted to the desired concentration with water containing emulsifier. Cabbage leaves (Brassica oleracea) are treated by dipping into the active compound preparation of the desired concentration and infected with caterpillars of the diamond back moth (Plutella xylostella) while the leaves were still wet. After the desired time the death rate is determined as %. Here 100% means that all caterpillars were killed; 0% means no caterpillars were killed.

Series [6] has as its system caterpillars of the beet army worm (Spodoptera exigua). Kind of series: Spodoptera exigua test (resistant strain). It counts as in vivo. How it is done: [table] For the preparation of a suitable active compound formulation 1 part by weight of the active compound is mixed with the above amounts of solvent and emulsifier and the concentrate is diluted to the desired concentration with water containing emulsifier. Cabbage leaves (Brassica oleracea) are treated by dipping in the active compound preparation at the desired concentration and infected with caterpillars of the beet army worm (Spodoptera exigua) while the leaves are still moist. After the desired time the death rate in % is determined. Here 100% means that all caterpillars were killed; 0% means that no caterpillars were killed.

The subject of series [7] is caterpillars of the cotton boll worm (Heliothis armigera). Kind of series: Heliothis armigera test. It counts as in vivo. The procedure: [table] For the preparation of a suitable active compound formulation 1 part by weight of the active compound is mixed with the above amounts of solvent and emulsifier and the concentrate is diluted to the desired concentration with water containing emulsifier. Soy bean leaves (Glycine max.) are treated by dipping into the active compound preparation at the desired concentration and infected with the caterpillars of the cotton boll worm (Heliothis armigera), while the leaves are still wet. After the desired time the death rate in % is determined. Here 100% means that all caterpillars were killed; 0% means that no caterpillars were killed.

Structures are written as SMILES.

Usually chromatographic logP stands for a lipophilicity value derived from retention on a column. As for `Cc1nc(Cn2cc(C(F)(F)C(F)(F)F)c(C(F)(F)C(F)(F)F)n2)ncc1NC(=O)c1cccc(Cl)c1C(=O)N[C@@H](C)CS(C)(=O)=O` [Example 66], the chromatographic logP in series [1] is 3.29. For the same compound, the pest or weed control at 100 g/ha in series [2] (Myzus persicae, in Brassica oleracea, 120 h, 100 g/ha, spray treatment, China cabbage slices, after 5 d, read-out: Death rate in % after 5d) amounted to 100%. Also, the “activity in Myzus test (spray treatment)” value in series [2] (statement in words) is “good activity”. For the same compound, the pest or weed control at 4 g/ha in series [3] (Phaedon cochleariae, 168 h, 4 g/ha, spray treatment, China cabbage slices, after 7 d, read-out: Death rate in % after 7d) is 100%; in series [4] (Spodoptera frugiperda, 168 h, 4 g/ha, spray treatment, maize leaf sections, after 7 d, read-out: Death rate in % after 7d), 100%. The “activity in Phaedon test (spray treatment)” value in series [3] (statement in words) is “good activity”. The “activity in Spodoptera frugiperda test (spray treatment)” value in series [4] (statement in words) is “good activity”. The “Death rate in % after 7d” value in series [5] (0.8 ppm, cabbage leaves dipped, after 7 d) is 100%; in series [6] (4 ppm, resistant strain, cabbage leaves dipped, after 7 d), 100%; in series [7] (0.8 ppm, soy bean leaves dipped, after 7 d), 80%. In series [5] (statement in words), the “activity in Plutella test” value was “good activity”. Moreover, the “activity in Spodoptera exigua test (resistant strain)” value in series [6] (statement in words) was “good activity”. In series [7] (statement in words), the “activity in Heliothis armigera test” value was “good activity”.
